Measurements published in patent US20260022142A1, “MACROCYCLIC IMMUNOMODULATORS” (Bristol-Myers Squibb Company, priority 2022, published 2026).
Numbered stars: 1 amine (or outer) side, 2 acyl side, 3 side chain; on linkers, the order of the positions; unused ones are H or OH. Bridge positions count the residues as written; N and C are the ends. Square brackets hold non-standard residues; d marks the D form. Peptide text beside a SMILES is read from it. * marks the point of attachment. ξ: configuration not given here. Phe(4-COOH) = N[C@@H](Cc1ccc(C(=O)O)cc1)C(=O)O; Bip = N[C@@H](Cc1ccc(-c2ccccc2)cc1)C(=O)O; Phe(3-OMe) = COc1cccc(C[C@H](N)C(=O)O)c1; Phe(3-Me) = Cc1cccc(C[C@H](N)C(=O)O)c1; γGlu = O=C(O)[C@H](CCC(=O)[*:2])N[*:1]; Val(3-OH) = CC(C)(O)[C@H](N)C(=O)O; 4Pal = N[C@@H](Cc1ccncc1)C(=O)O; 3Thi = N[C@@H](Cc1ccsc1)C(=O)O; Cha = N[C@@H](CC1CCCCC1)C(=O)O; Cit = NC(=O)NCCC[C@H](N)C(=O)O; Thr(3ξ) = CC(O)[C@H](N)C(=O)O; Carboxymethyl = O=C(O)C*; Orn = NCCC[C@H](N)C(=O)O; Aun = NCCCCCCCCCCC(=O)O; Dab = NCC[C@H](N)C(=O)O; Dap = NC[C@H](N)C(=O)O; AEEA = NCCOCCOCC(=O)O

Each compound was assayed against T1, PD-1/PD-L1 interaction (PE-labeled human PD-L1-Ig binding to Jurkat cell line over-expressing human PD-1) (Homo sapiens, UniProt Q15116) (assay: Jurkat-PD-1 Cell Binding High-Content Screening Assay (CBA)). Conditions: Jurkat cell line over-expressing human PD-1; PE-labeled PD-L1-Ig 20 nM final; read-out: Jurkat hPD1-PDL1 IC50.
T1 construct: expressed in transfected cells; host or cells: Jurkat
T1 sequence (Q15116 25-288): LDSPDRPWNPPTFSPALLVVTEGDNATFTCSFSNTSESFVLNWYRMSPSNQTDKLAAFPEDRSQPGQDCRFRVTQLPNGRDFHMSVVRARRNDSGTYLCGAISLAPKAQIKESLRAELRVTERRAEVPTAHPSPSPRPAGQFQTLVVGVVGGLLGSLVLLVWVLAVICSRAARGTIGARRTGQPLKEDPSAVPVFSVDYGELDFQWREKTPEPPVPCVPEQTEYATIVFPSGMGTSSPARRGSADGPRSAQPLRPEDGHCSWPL
Format: cell-based
Outline: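 Jurkat-hPD-1 cells, DMEM/10% FCS; cpd 2 h 37° C; PE-PD-L1-Ig 20 nM final, 1 h; 4% PFA fix + Hoechst 33342, 3× dPBS wash; high-content imaging read-out.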

IC50 [nM]	Compound
0.6	COc1ccc(C[C@@H]2NC(=O)[C@H](Cc3cccc(C)c3)NC(=O)[C@H](CC(=O)O)NC(=O)[C@H](Cc3ccc(OCC(=O)O)cc3)NC(=O)[C@H](Cc3ccncc3)NC(=O)CSC[C@@H](C(=O)N[C@@H](CCN)C(=O)NCCCCCCCCCCC(=O)O)NC(=O)[C@H](CO)NC(=O)[C@H](C(C)(C)O)NC(=O)[C@H](CC3CCCCC3)NC(=O)[C@H](CCN)NC(=O)[C@@H](CC(C)C)NC(=O)[C@H](CCCN)NC(=O)[C@H](Cc3ccc(OCC(=O)O)cc3)NC(=O)[C@H](Cc3ccc(-c4ccccc4)cc3)NC2=O)cc1 [Compound 2229] ({CH2CO}-[4Pal]Y(Carboxymethyl)D[Phe(3-Me)]Y(Me)[Bip]Y(Carboxymethyl)[Orn][dL][Dab][Cha][Val(3-OH)]SC[Dab][Aun]-OH; thioether N-14)
54.1	CC(C)C[C@H]1NC(=O)[C@H](CCCN)NC(=O)[C@H](C(C)C)NC(=O)[C@H](Cc2ccc(-c3ccccc3)cc2)NC(=O)[C@H](C(C)C)NC(=O)[C@H](Cc2c[nH]c3ccccc23)NC(=O)[C@H](CC(=O)O)NC(=O)[C@H](Cc2ccc(OCC(=O)O)cc2)NC(=O)[C@H](CN)NC(=O)CSC[C@@H](C(=O)N[C@@H](CCCN)C(=O)NCCCCCCCCCCC(=O)O)NC(=O)[C@H](CCC(=O)O)NC(=O)[C@H](C(C)C)NC(=O)[C@H](CC2CCCCC2)NC(=O)[C@H](Cc2c[nH]cn2)NC1=O [Compound 2776] ({CH2CO}-[Dap]Y(Carboxymethyl)DWV[Bip]V[Orn][dL]H[Cha]VEC[Orn][Aun]-OH; thioether N-14)
4.9	Cc1cccc(C[C@@H]2NC(=O)[C@H](CC(=O)O)NC(=O)[C@H](Cc3ccc(OCC(=O)O)cc3)NC(=O)[C@H](CN)NC(=O)CSC[C@@H](C(=O)NCCOCCOCC(=O)N[C@@H](CCN)C(=O)NCCCCCCCCCCC(=O)O)NC(=O)[C@H](CN)NC(=O)[C@H](C(C)C)NC(=O)[C@H](CC3CCCCC3)NC(=O)[C@H](CCN)NC(=O)[C@@H](CC(C)C)NC(=O)[C@H](CCCN)NC(=O)[C@H](C(C)C)NC(=O)[C@H](Cc3ccc(-c4ccccc4)cc3)NC(=O)[C@H](C(C)C)NC2=O)c1 [Compound 2542] ({CH2CO}-[Dap]Y(Carboxymethyl)D[Phe(3-Me)]V[Bip]V[Orn][dL][Dab][Cha]V[Dap]C[AEEA][Dab][Aun]-OH; thioether N-14)
21.1	Cc1cccc(C[C@@H]2NC(=O)[C@H](CC(=O)O)NC(=O)[C@H](Cc3ccc(OCC(=O)O)cc3)NC(=O)[C@H](CCCNC(=N)N)NC(=O)CSC[C@@H](C(=O)N[C@@H](CCN)C(=O)NCCCCCCCCCCC(=O)O)NC(=O)[C@H]([C@@H](C)O)NC(=O)[C@H](C(C)C)NC(=O)[C@H](CC3CCCCC3)NC(=O)[C@H](CCN)NC(=O)[C@@H](CC(C)C)NC(=O)[C@H](C)NC(=O)[C@H](C(C)(C)O)NC(=O)[C@H](Cc3ccc(-c4ccccc4)cc3)NC(=O)[C@H](Cc3ccc(OCC(=O)O)cc3)NC2=O)c1 [Compound 2139] ({CH2CO}-RY(Carboxymethyl)D[Phe(3-Me)]Y(Carboxymethyl)[Bip][Val(3-OH)]A[dL][Dab][Cha]VTC[Dab][Aun]-OH; thioether N-14)
6.6	Cc1cccc(C[C@@H]2NC(=O)[C@H](CC(=O)O)NC(=O)[C@H](Cc3ccc(OCC(=O)O)cc3)NC(=O)[C@H](CN)NC(=O)CSC[C@@H](C(=O)N[C@@H](CCC(=O)NCCOCCOCC(=O)NCCCCCCCCCCC(=O)O)C(=O)O)NC(=O)[C@H]([C@@H](C)O)NC(=O)[C@H](C(C)C)NC(=O)[C@H](CC3CCCCC3)NC(=O)[C@H](CCN)NC(=O)[C@@H](CC(C)C)NC(=O)[C@H](CCCN)NC(=O)[C@H](CCCNC(N)=O)NC(=O)[C@H](Cc3ccc(-c4ccccc4)cc3)NC(=O)[C@H](C(C)C)NC2=O)c1 [Compound 1034] ({CH2CO}-[Dap]Y(Carboxymethyl)D[Phe(3-Me)]V[Bip][Cit][Orn][dL][Dab][Cha]VTC[γGlu][AEEA][Aun]-OH; thioether N-14)
9.2	Cc1cccc(C[C@@H]2NC(=O)[C@H](CC(=O)O)NC(=O)[C@H](Cc3ccc(OCC(=O)O)cc3)NC(=O)[C@H](CN)NC(=O)CSC[C@@H](C(=O)N[C@@H](CCN)C(=O)NCCCCCCCCCCC(=O)O)NC(=O)[C@H](CCCN)NC(=O)[C@H](C(C)C)NC(=O)[C@H](CC3CCCCC3)NC(=O)[C@H](CCN)NC(=O)[C@@H](CC(C)C)NC(=O)[C@H](CCCN)NC(=O)[C@H](Cc3ccc(OCC(=O)O)cc3)NC(=O)[C@H](Cc3ccc(-c4ccccc4)cc3)NC(=O)[C@H](Cc3ccc(OCC(=O)O)cc3)NC2=O)c1 [Compound 2843] ({CH2CO}-[Dap]Y(Carboxymethyl)D[Phe(3-Me)]Y(Carboxymethyl)[Bip]Y(Carboxymethyl)[Orn][dL][Dab][Cha]V[Orn]C[Dab][Aun]-OH; thioether N-14)
152	Cc1cccc(C[C@@H]2NC(=O)[C@H](CC(=O)O)NC(=O)[C@H](Cc3ccc(OCC(=O)O)cc3)NC(=O)[C@H](CN)NC(=O)CSC[C@@H](C(=O)NCCOCCOCC(=O)NCCCCCCCCCCC(=O)O)NC(=O)[C@H](CCCN)NC(=O)[C@H](Cc3ccc(O)cc3)NC(=O)[C@H](CC3CCCCC3)NC(=O)[C@H](CCN)NC(=O)[C@@H](CC(C)C)NC(=O)[C@H](CCCN)NC(=O)[C@H](Cc3ccc(O)cc3)NC(=O)[C@H](Cc3ccc(-c4ccccc4)cc3)NC(=O)[C@H](Cc3ccc(O)cc3)NC2=O)c1 [Compound 2519] ({CH2CO}-[Dap]Y(Carboxymethyl)D[Phe(3-Me)]Y[Bip]Y[Orn][dL][Dab][Cha]Y[Orn]C[AEEA][Aun]-OH; thioether N-14)
603	CC(C)C[C@H]1NC(=O)[C@H](CCCNC(N)=O)NC(=O)[C@H](C(C)C)NC(=O)[C@H](Cc2ccc(-c3ccccc3)cc2)NC(=O)[C@H](C(C)C)NC(=O)[C@H](Cc2c[nH]c3ccccc23)NC(=O)[C@H](CC(=O)O)NC(=O)[C@H](Cc2ccc(OCC(=O)O)cc2)NC(=O)[C@H](Cc2ccsc2)NC(=O)CSC[C@@H](C(=O)NCCOCCOCC(=O)N[C@@H](CCCN)C(=O)NCCCCCCCCCCC(=O)O)NC(=O)[C@H](C(C)O)NC(=O)[C@H](C(C)C)NC(=O)[C@H](CC2CCCCC2)NC(=O)[C@H](CCN)NC1=O (stereo partly drawn) [Compound 3208] ({CH2CO}-[3Thi]Y(Carboxymethyl)DWV[Bip]V[Cit][dL][Dab][Cha]V[Thr(3ξ)]C[AEEA][Orn][Aun]-OH; thioether N-14)
5.9	Cc1cccc(C[C@@H]2NC(=O)[C@H](CC(=O)O)NC(=O)[C@H](Cc3ccc(OCC(=O)O)cc3)NC(=O)[C@H](C(C)O)NC(=O)CSC[C@@H](C(=O)N[C@H](CC(N)=O)C(=O)NCCCCCCCCCCC(=O)O)NC(=O)[C@H](C(C)O)NC(=O)[C@H](C(C)C)NC(=O)[C@H](CC3CCCCC3)NC(=O)[C@H](CCN)NC(=O)[C@@H](CC(C)C)NC(=O)[C@H](CCCN)NC(=O)[C@H](Cc3ccc(OCC(=O)O)cc3)NC(=O)[C@H](Cc3ccc(-c4ccccc4)cc3)NC(=O)[C@H](Cc3ccc(OCC(=O)O)cc3)NC2=O)c1 (stereo partly drawn) [Compound 3490] ({CH2CO}-[Thr(3ξ)]Y(Carboxymethyl)D[Phe(3-Me)]Y(Carboxymethyl)[Bip]Y(Carboxymethyl)[Orn][dL][Dab][Cha]V[Thr(3ξ)]C[dN][Aun]-OH; thioether N-14)
5.3	CC(C)C[C@H]1NC(=O)[C@H](CCCN)NC(=O)[C@H](C(C)C)NC(=O)[C@H](Cc2ccc(-c3ccccc3)cc2)NC(=O)[C@H](C(C)C)NC(=O)[C@H](Cc2c[nH]c3ccccc23)NC(=O)[C@H](CC(=O)O)NC(=O)[C@H](Cc2ccc(C(=O)O)cc2)NC(=O)[C@H](Cc2ccc(OCC(=O)O)cc2)NC(=O)CSC[C@@H](C(=O)NCCOCCOCC(=O)N[C@@H](CCN)C(=O)NCCCCCCCCCCC(=O)O)NC(=O)[C@H](CCCCN)NC(=O)[C@H](C(C)C)NC(=O)[C@H](CC2CCCCC2)NC(=O)[C@H](CCN)NC1=O [Compound 2539] ({CH2CO}-Y(Carboxymethyl)[Phe(4-COOH)]DWV[Bip]V[Orn][dL][Dab][Cha]VKC[AEEA][Dab][Aun]-OH; thioether N-14)
80.2	Cc1cccc(C[C@@H]2NC(=O)[C@H](CC(=O)O)NC(=O)[C@H](Cc3ccc(OCC(=O)O)cc3)NC(=O)[C@H](CN)NC(=O)CSC[C@@H](C(=O)N[C@@H](CCN)C(=O)NCCOCCOCC(=O)NCCCCCCCCCCC(=O)O)NC(=O)[C@H](C(C)O)NC(=O)[C@H](Cc3ccc(O)cc3)NC(=O)[C@H](CC3CCCCC3)NC(=O)[C@H](CCN)NC(=O)[C@@H](CC(C)C)NC(=O)[C@H](CCCN)NC(=O)[C@H](Cc3ccc(O)cc3)NC(=O)[C@H](Cc3ccc(-c4ccccc4)cc3)NC(=O)[C@H](Cc3ccc(O)cc3)NC2=O)c1 (stereo partly drawn) [Compound 2569] ({CH2CO}-[Dap]Y(Carboxymethyl)D[Phe(3-Me)]Y[Bip]Y[Orn][dL][Dab][Cha]Y[Thr(3ξ)]C[Dab][AEEA][Aun]-OH; thioether N-14)
7.2	COc1cccc(C[C@@H]2NC(=O)[C@H](CC(=O)O)NC(=O)[C@H](Cc3ccc(OCC(=O)O)cc3)NC(=O)[C@H](CN)NC(=O)CSC[C@@H](C(=O)N[C@@H](CCN)C(=O)NCCOCCOCC(=O)NCCCCCCCCCCC(=O)O)NC(=O)[C@H](CCCN)NC(=O)[C@H](C(C)C)NC(=O)[C@H](CC3CCCCC3)NC(=O)[C@H](CCN)NC(=O)[C@@H](CC(C)C)NC(=O)[C@H](CCCN)NC(=O)[C@H](Cc3ccc(O)cc3)NC(=O)[C@H](Cc3ccc(-c4ccccc4)cc3)NC(=O)[C@H](Cc3ccc(OCC(=O)O)cc3)NC2=O)c1 [Compound 1001] ({CH2CO}-[Dap]Y(Carboxymethyl)D[Phe(3-OMe)]Y(Carboxymethyl)[Bip]Y[Orn][dL][Dab][Cha]V[Orn]C[Dab][AEEA][Aun]-OH; thioether N-14)
45	Cc1cccc(C[C@@H]2NC(=O)[C@H](CC(=O)O)NC(=O)[C@H](Cc3ccc(OCC(=O)O)cc3)NC(=O)[C@H](Cc3ccc(OCC(=O)O)cc3)NC(=O)CSC[C@@H](C(=O)N[C@@H](CCN)C(=O)NCCCCCCCCCCC(=O)O)NC(=O)[C@H]([C@@H](C)O)NC(=O)[C@H](C(C)C)NC(=O)[C@H](CC(C)C)NC(=O)[C@H](CCN)NC(=O)[C@@H](CC(C)C)NC(=O)[C@H](CCCN)NC(=O)[C@H](Cc3ccc(O)cc3)NC(=O)[C@H](Cc3ccc(-c4ccccc4)cc3)NC(=O)[C@H](CC(C)C)NC2=O)c1 [Compound 2747] ({CH2CO}-Y(Carboxymethyl)Y(Carboxymethyl)D[Phe(3-Me)]L[Bip]Y[Orn][dL][Dab]LVTC[Dab][Aun]-OH; thioether N-14)
